Measured values as given in patent publication US12157713B2, “Conjugated oligoelectrolytes as antimicrobial agents” (Nanyang Technological University, priority 2018, dated 2024).
Where “and” joins values, the source holds several entries; their conditions need not be identical. Identical values can stand only once. Like-named read-outs stand apart in the source and are kept apart here.

What was measured:
[1] = system: Escherichia coli FDA control ATCC 25922; assay: Single-dose growth inhibition, Ec; format: cell-based
Description: (§1) Inhibition of bacterial growth was determined by measuring the absorbance at 600 nm (OD600), using a Tecan M1000 Pro monochromator plate reader. Growth inhibition was calculated for each well, relative to the reference growths determined from a negative control (media only) and positive control (bacteria without inhibitors) incubated in the same plate. A single dose of 32 μg/mL of COE (final concentration) was used for each test.
(§2) Percentage growth inhibition of an individual sample was calculated based on growth in a reference well determined from negative controls (media only) and positive controls (bacterial/fungal media without inhibitors). Negative inhibition values indicate that the growth rate (or OD600) is higher compared to the reference growth (bacteria/fungi only, set to 0% inhibition). The growth rates for all bacteria and fungi may vary at −/+10%, which were within the reported normal distribution of bacterial/fungal growth. Any significant variations (or outliers/hits) were identified by the modified Z-Score, and the active compounds were selected by a combination of inhibition values and Z-Score.
(§3) A M(i) value of >|2.5| (absolute) would classify the sample as outliers or hits. Active samples were denoted as compounds with inhibition values equal to or above 80% and absolute Z-Score above |2.5| for either replicate (n=2 on different plates). Partial active samples were denoted as compounds with inhibition values from 50% to <80%, or absolute Z-Score below |2.5|.

[2] = system: Klebsiella pneumoniae MDR ATCC 700603; assay: Single-dose growth inhibition, Kp; format: cell-based
Description: as §1, §2, §3

[3] = system: Acinetobacter baumannii ATCC 19606; assay: Single-dose growth inhibition, Ab; format: cell-based
Description: as §1, §2, §3

[4] = system: E. coli K12; assay: MIC by broth microdilution against E. coli K12; format: cell-based; settings: Escherichia coli, read-out: MIC against E. coli K12
Description: The respective minimum inhibition concentration (MIC) of each COE molecule was determined using a broth microdilution method. Briefly, COEs were diluted via a 2-fold dilution series in 100 μL of either Muller Hinton Broth (MHB) for E. coli and S. aureus or Brain Heart Infusion Broth (BHI) for E. faecalis in a 96-well plate to achieve the desired final concentration. Subsequently, each well was inoculated with 100 μL of 1×10^6 colony forming units (CFU) mL^−1 of the respective microorganism in MHB for E. coli or BHI for E. faecalis to achieve an inoculum density of 5×10^5 CFU mL^−1. The plates were then incubated at 37° C. with shaking (200 rpm) for 18 hrs. […] The results were obtained in triplicate.
The MIC values of COE-D4, COE-D6 and COE-D8 against the reference strain E. coli K12, pathogenic E. coli UT189, and the Gram positive pathogen Enterococcus faecalis OG1RF were determined using a broth microdilution method as described in the general method above. The MICs for E. coli K12 were determined to be 128, 16, and 4 μg mL^−1 for COE-D4, COE-D6, and COE-D8, respectively (FIG. 5a). […] This is not surprising as these two organisms differ in the capsular polysaccharides that they expressed, which are known to hinder the uptake of antimicrobials and mitigate their potency (M. A. Campos, et al., Infect. Immun. 2004, 72, 7107-7114). A K-type capsid comprising α2-8-linked sialic acid is excreted by UT189 and is known to be an important virulence factor for this organism (C. Whitfield, et al., Mol. Microbiol. 1999, 31, 1307-1319; G. G. Anderson, et al., Infect. Immun. 2010, 78, 963-975).

[5] = system: Candida albicans ATCC 90028; assay: Single-dose growth inhibition, Ca; format: cell-based
Description: (§4) Growth inhibition of C. albicans was determined by measuring the absorbance at 530 nm (OD530), while the growth inhibition of C. neoformans was determined by measuring the difference in absorbance between 600 and 570 nm (OD600-570), after the addition of resazurin (0.001 wt. % final concentration) and incubation at 35° C. for additional 2 hrs. The absorbance was measured using a Biotek Synergy HTX plate reader. The relative growth inhibition was calculated for each well, relative to that determined from a negative control (media only) and positive control (bacteria without inhibitors) on the same plate as references. A single dose of 32 μg/mL of COE (final concentration) was used for each test.
as §2, §3

[6] = system: Pseudomonas aeruginosa ATCC 27853; assay: Single-dose growth inhibition, Pa; format: cell-based
Description: as §1, §2, §3

[7] = system: Staphylococcus aureus MRSA ATCC 43300; assay: Single-dose growth inhibition, Sa; format: cell-based
Description: as §1, §2, §3

[8] = system: Cryptococcus neoformans var. grubii H99; ATCC 208821; assay: Single-dose growth inhibition, Cn; format: cell-based
Description: as §4, §2, §3

[9] = system: organism classes (Gram-negative, Gram-positive and fungi); assay: Single-dose screening summary by organism class; format: cell-based; settings: 32 μg/mL; 0 = no activity
Description: as §2
Z-Score analysis was carried out to investigate outliers or hits among the samples. The Z-Score was calculated based on the sample population using a modified Z-Score method which accounts for possible skewed sample population. The modified method uses median and MAD ([…]) instead of average and standard deviation, and a scaling factor (Iglewicz, B. & Hoaglin, D. C. Volume 16: How to Detect and Handle Outliers. The ASQC Basic Reference in Quality Control: Statistical Techniques, 1993). The equation to calculate the modified Z-Score value is as follow: […]
as §3

[10] = system: E. coli K12; assay: Cellular uptake by E. coli K12 (absorption spectroscopy); format: cell-based, Escherichia coli; settings: 10 μg/mL COE in PBS, OD=0.5, 2 hrs, room temperature
Description: The relative membrane affinity of COE-D4, COE-D6 and COE-D8 was estimated from the quantity taken up by cells using absorption spectroscopy. After cultures of E. coli K12 were grown in MHB at 37° C., the cells were harvested by centrifugation (6000 rpm, 5 min) and washed twice with PBS solution (pH=7.2). The cells were then resuspended in PBS and with the density adjusted to OD=1.0. Thereafter, 5 mL of this cell suspension was mixed with an equal volume of 20 μg/mL of COE in PBS to achieve a final concentration of 10 μg/mL (in triplicates). After exposure to COEs for 2 hrs at room temperature and with shaking (200 rpm), the cells were removed by centrifugation and the supernatant was collected for absorbance scans to quantify the remaining COE in the supernatant. The uptake quantity was estimated by comparing the absorbance of the supernatant to the corresponding control COE solution (i.e. 10 μg/mL in PBS). The procedure for uptake measurements at the lower temperature is similar to the one described above, but with the exposure to COEs and centrifugation occurring at 4° C. instead of room temperature
The effect of molecular structures of the COEs on relative membrane affinity, estimated from the amount taken up by E. coli K12, was measured by absorption spectroscopy (FIG. 8a-c). These experiments utilised cell suspensions (OD=0.5) incubated for 2 hrs with 10 μg mL^−1 of various COE. Cells were removed by centrifugation, and the amount of uncomplexed COE was determined from the optical absorption spectra. The longest molecule, COE-D8, achieved the highest uptake in bacteria (72%). In contrast, only 3% of COE-D4 was absorbed while the uptake for COE-D6 was 16% (Table 1a).
Parallel experiments were carried out at 4° C. […] As a result of the reduced fluidity of cellular membrane at lower temperature, the uptake decreased to around 1% for COE-D4, 5% for COE-D6, and 34% for COE-D8.

[11] = Solubility in PBS / aqueous solubility; format: physicochemical
[12] = ATCC25922, 32 μg/mL single dose, n=2, read-out: Growth inhibition Ec
[13] = ATCC700603, 32 μg/mL single dose, n=2, read-out: Growth inhibition Kp
[14] = ATCC19606, 32 μg/mL single dose, n=2, read-out: Growth inhibition Ab
[15] = K12, broth microdilution, MHB, 18 hrs
[16] = ATCC90028, 32 μg/mL single dose, n=2, read-out: Growth inhibition Ca
[17] = ATCC27853, 32 μg/mL single dose, n=2, read-out: Growth inhibition Pa
[18] = 32 μg/mL single dose, n=2, read-out: Growth inhibition Sa
[19] = ATCC208821, 32 μg/mL single dose, n=2, read-out: Growth inhibition Cn
[20] = aqueous buffer, in PBS, read-out: Solubility in PBS

SMILES	inhibition at 32 µg/mL ([1]; ATCC25922, read-out: Growth inhibition Ec) [%]	inhibition at 32 µg/mL ([2]; ATCC700603, read-out: Growth inhibition Kp) [%]	inhibition at 32 µg/mL ([3]; ATCC19606, read-out: Growth inhibition Ab) [%]	MIC ([4]; K12, 18 h) [µg/mL]	inhibition at 32 µg/mL ([5]; ATCC90028, read-out: Growth inhibition Ca) [%]	inhibition at 32 µg/mL ([6]; ATCC27853, read-out: Growth inhibition Pa) [%]	inhibition at 32 µg/mL ([7]; read-out: Growth inhibition Sa) [%]	inhibition at 32 µg/mL ([8]; ATCC208821, read-out: Growth inhibition Cn) [%]	Activity: number of organism classes the compound has been found active against [9]	inhibition at 32 µg/mL [1, 12] [%]	inhibition at 32 µg/mL [2, 13] [%]	inhibition at 32 µg/mL [3, 14] [%]	MIC [4, 15] [µg/mL]	inhibition at 32 µg/mL [5, 16] [%]	inhibition at 32 µg/mL [6, 17] [%]	inhibition at 32 µg/mL [7, 18] [%]	inhibition at 32 µg/mL [8, 19] [%]	Uptake by E. coli K12 [10]	solubility [11, 20] [µg/mL]	solubility ([11]; aqueous solution, read-out: aqueous solubility) [µg/mL]
C[N+](C)(C)CC[N+](C)(C)CCCCOc1ccc(/C=C/c2ccc(OCCCC[N+](C)(C)CC[N+](C)(C)C)cc2)cc1 [COE-D42]	< 50	< 50	< 50	128	< 50	< 50	> 80	< 50	1	–	–	–	–	–	–	–	–	–	–	–
C[N+](C)(C)CC[N+](C)(C)CCCCCCOc1ccc(/C=C/c2ccc(OCCCCCC[N+](C)(C)CC[N+](C)(C)C)cc2)cc1 [COE-D62]	–	–	–	–	–	–	–	–	3	> 80	> 80	> 80	16	< 50	< 50	> 80	> 80	–	–	–
C[N+](C)(C)CC[N+](C)(C)CCCCCCCCOc1ccc(/C=C/c2ccc(OCCCCCCCC[N+](C)(C)CC[N+](C)(C)C)cc2)cc1 [COE-D82]	–	–	–	–	–	–	–	–	3	> 80	50 to 80	50 to 80	32	> 80	> 80	> 80	> 80	–	–	–
C[N+](C)(C)CCCCOc1ccc(/C=C/c2ccc(/C=C/c3ccc(OCCCC[N+](C)(C)C)cc3)cc2)cc1 [COE-T4]	–	–	–	–	–	–	–	–	2	< 50	< 50	50 to 80	32	> 80	< 50	> 80	> 80	75±5% and 80%	210	210
C[N+](C)(C)CCCCCCOc1ccc(/C=C/c2ccc(/C=C/c3ccc(OCCCCCC[N+](C)(C)C)cc3)cc2)cc1 [COE-T6]	–	–	–	–	–	–	–	–	2	< 50	< 50	< 50	> 16	> 80	< 50	> 80	> 80	89%	76	–
CN(C)CC[N+](C)(C)CCCCOc1ccc(/C=C/c2ccc(/C=C/c3ccc(OCCCC[N+](C)(C)CCN(C)C)cc3)cc2)cc1 [COE-T42N]	–	–	–	–	–	–	–	–	3	> 80	< 50	> 80	8	> 80	< 50	> 80	> 80	–	–	–
CN(C)CC[N+](C)(C)CCCCCCOc1ccc(/C=C/c2ccc(/C=C/c3ccc(OCCCCCC[N+](C)(C)CCN(C)C)cc3)cc2)cc1 [COE-T62N]	–	–	–	–	–	–	–	–	2	< 50	< 50	> 80	64	> 80	< 50	> 80	> 80	–	–	–
